The results in this text go back to patent publication US20100105655A1, “NOVEL COMPOUNDS 515” (ASTRAZENECA AB, priority 2008, published 2010).

The structures appear in SMILES notation.

In the assay the target is T1, IGFR kinase (Homo sapiens, UniProt P08069).
T1 construct: purchased Millipore
T1 sequence (P08069 31-1367): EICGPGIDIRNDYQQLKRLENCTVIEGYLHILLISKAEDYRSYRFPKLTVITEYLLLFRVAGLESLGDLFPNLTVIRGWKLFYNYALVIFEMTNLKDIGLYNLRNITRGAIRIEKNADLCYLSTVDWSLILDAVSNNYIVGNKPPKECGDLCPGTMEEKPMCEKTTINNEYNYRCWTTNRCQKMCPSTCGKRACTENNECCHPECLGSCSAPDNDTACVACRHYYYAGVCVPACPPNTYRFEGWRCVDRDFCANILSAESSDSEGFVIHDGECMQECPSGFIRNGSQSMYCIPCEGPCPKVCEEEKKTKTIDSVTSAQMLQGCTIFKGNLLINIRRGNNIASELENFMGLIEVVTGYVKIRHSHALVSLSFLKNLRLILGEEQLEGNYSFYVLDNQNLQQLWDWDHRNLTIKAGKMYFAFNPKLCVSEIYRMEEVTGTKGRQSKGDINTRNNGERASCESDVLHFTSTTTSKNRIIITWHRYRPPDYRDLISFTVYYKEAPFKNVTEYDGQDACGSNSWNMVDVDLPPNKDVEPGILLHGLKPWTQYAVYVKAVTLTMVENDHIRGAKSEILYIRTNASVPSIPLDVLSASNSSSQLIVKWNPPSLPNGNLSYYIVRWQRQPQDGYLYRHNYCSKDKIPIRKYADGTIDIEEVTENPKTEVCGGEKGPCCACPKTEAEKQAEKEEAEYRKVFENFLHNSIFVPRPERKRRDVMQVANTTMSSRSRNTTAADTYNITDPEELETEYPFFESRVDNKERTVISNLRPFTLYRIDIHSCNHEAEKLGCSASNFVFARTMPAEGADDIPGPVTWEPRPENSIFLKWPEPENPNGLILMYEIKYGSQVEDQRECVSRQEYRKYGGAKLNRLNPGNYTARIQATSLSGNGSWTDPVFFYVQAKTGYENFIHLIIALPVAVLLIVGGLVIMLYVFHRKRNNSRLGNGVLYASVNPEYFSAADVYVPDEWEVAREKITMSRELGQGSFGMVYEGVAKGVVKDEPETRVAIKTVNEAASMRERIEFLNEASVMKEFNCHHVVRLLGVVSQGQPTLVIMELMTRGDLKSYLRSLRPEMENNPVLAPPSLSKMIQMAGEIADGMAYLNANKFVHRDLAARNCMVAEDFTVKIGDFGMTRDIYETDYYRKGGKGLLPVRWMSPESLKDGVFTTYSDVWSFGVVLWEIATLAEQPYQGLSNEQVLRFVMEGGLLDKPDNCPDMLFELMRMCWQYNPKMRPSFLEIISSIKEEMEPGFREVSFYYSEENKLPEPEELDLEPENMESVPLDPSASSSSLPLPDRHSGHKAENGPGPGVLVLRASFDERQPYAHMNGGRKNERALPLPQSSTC
Put plainly: Enzyme assay (c), IGFR kinase, Caliper LabChip. The assay is classed as biochemical. The conditions noted are these: 30 nM IGFR kinase, 6 uM ATP, 3 uM peptide mix; read-out: IGFR IC50.
Take `COc1cc(N2CCN(C(=O)[C@@H](N)C(C)C)CC2)ccc1Nc1ncc(Cl)c(-c2cnc3ccccn23)n1` [Example 24.6, (2S)-2-amino-1-[4-[4-[(5-chloro-4-imidazo[1,2-a]pyridin-3-yl-pyrimidin-2-yl)amino]-3-methoxy-phenyl]piperazin-1-yl]-3-methyl-butan-1-one]: the IC50 was determined as 6 nM.
For `COc1cc(N2CCN(C(=O)[C@@H](N)CO)CC2)ccc1Nc1ncc(Cl)c(-c2cnc3ccccn23)n1` [Example 24.7, (2S)-2-amino-1-[4-[4-[(5-chloro-4-imidazo[1,2-a]pyridin-3-yl-pyrimidin-2-yl)amino]-3-methoxy-phenyl]piperazin-1-yl]-3-hydroxy-propan-1-one], the IC50 was 5 nM.
Take `COc1cc(N2CCN(C(=O)[C@@H](N)CC(N)=O)CC2)ccc1Nc1ncc(Cl)c(-c2cnc3ccccn23)n1` [Example 24.8, (3S)-3-amino-4-[4-[4-[(5-chloro-4-imidazo[1,2-a]pyridin-3-yl-pyrimidin-2-yl)amino]-3-methoxy-phenyl]piperazin-1-yl]-4-oxo-butanamide]: the IC50 is 7 nM.
`COc1cc(N2CCN(C(=O)[C@@H]3C[C@@H](O)CN3)CC2)ccc1Nc1ncc(Cl)c(-c2cnc3ccccn23)n1` [Example 24.9, [4-[4-[(5-chloro-4-imidazo[1,2-a]pyridin-3-yl-pyrimidin-2-yl)amino]-3-methoxy-phenyl]piperazin-1-yl]-[(2S,4R)-4-hydroxypyrrolidin-2-yl]methanone]: the IC50 is 6 nM.
Then `CCNCC(=O)N1CCN(c2ccc(Nc3ncc(Cl)c(-c4cnc5ccccn45)n3)c(OC)c2)CC1` [Example 24.11, 1-[4-[4-[(5-chloro-4-imidazo[1,2-a]pyridin-3-yl-pyrimidin-2-yl)amino]-3-methoxy-phenyl]piperazin-1-yl]-2-ethylamino-ethanone], with 15 nM.
The figure for `COc1cc(N2CCN(C(=O)[C@H](N)CO)CC2)ccc1Nc1ncc(Cl)c(-c2cnc3ccccn23)n1` [Example 24.12, (2R)-2-amino-1-[4-[4-[(5-chloro-4-imidazo[1,2-a]pyridin-3-yl-pyrimidin-2-yl)amino]-3-methoxy-phenyl]piperazin-1-yl]-3-hydroxy-propan-1-one] is 6 nM.
Then `COc1cc(N2CCN(C(=O)[C@@H](N)CCO)CC2)ccc1Nc1ncc(Cl)c(-c2cnc3ccccn23)n1` [Example 24.13, (2S)-2-amino-1-[4-[4-[(5-chloro-4-imidazo[1,2-a]pynidin-3-yl-pyrimidin-2-yl)amino]-3-methoxy-phenyl]piperazin-1-yl]-4-hydroxy-butan-1-one], with 5 nM; and `COc1cc(N2CCN(C(=O)C3CCC(=O)N3)CC2)ccc1Nc1ncc(Cl)c(-c2cnc3ccccn23)n1` (centres unmarked) [Example 25.1, 5-[4-[4-[(5-chloro-4-imidazo[1,2-a]pyridin-3-yl-pyrimidin-2-yl)amino]-3-methoxy-phenyl]piperazine-1-carbonyl]pyrrolidin-2-one], with 9 nM; and `COc1cc(N2CCN(C(=O)[C@@H]3CCC(=O)N3)CC2)ccc1Nc1ncc(Cl)c(-c2cnc3ccccn23)n1` [Example 25.1A, (5S)-5-[4-[4-[(5-chloro-4-imidazo[1,2-a]pyridin-3-yl-pyrimidin-2-yl)amino]-3-methoxy-phenyl]piperazine-1-carbonyl]pyrrolidin-2-one], with 8 nM.
With `COc1cc(N2CCN(C(=O)CNC(C)=O)CC2)ccc1Nc1ncc(Cl)c(-c2cnc3ccccn23)n1` [Example 25.2, N-[2-[4-[4-[(5-chloro-4-imidazo[1,2-a]pyridin-3-yl-pyrimidin-2-yl)amino]-3-methoxy-phenyl]piperazin-1-yl]-2-oxo-ethyl]acetamide], the IC50 is 13 nM.
Then `COc1cc(N2CCN(C(=O)[C@H](C)OC)CC2)ccc1Nc1ncc(Cl)c(-c2cnc3ccccn23)n1` [Example 25.3, (2S)-1-[4-[4-[(5-chloro-4-imidazo[1,2-a]pyridin-3-yl-pyrimidin-2-yl)amino]-3-methoxy-phenyl]piperazin-1-yl]-2-methoxy-propan-1-one], with 14 nM.
